# Reference: the kinase profiling compilation of Christmann-Franck et al. (2016)
# Tests used:
# Assay in all cases: KINOMEscan competition binding
# Conditions in all cases: compound 10.0 µM
# MYO3A (human) = MYO3A (human) (UniProt Q8NEV4)
# [1] = tested on: ABL1 (human), P00519 [F317I]
# [2] = target: TYK2 JH2 pseudokinase (human) (UniProt P29597)
# GSK3A (human) = GSK3A (human) (UniProt P49840)
# TAOK1 (human) = TAOK1 (human) (UniProt Q7L7X3)
# SRMS (human) = SRMS (human) (UniProt Q9H3Y6)
# ACVR1B (human) = ACVR1B (human) (UniProt P36896)
# CDK15 (human) = CDK15 (human) (UniProt Q96Q40)
# SIK1 (human) = SIK1 (human) (UniProt P57059)
# SIK1 (human), sequence (P57059 whole entry, looked up): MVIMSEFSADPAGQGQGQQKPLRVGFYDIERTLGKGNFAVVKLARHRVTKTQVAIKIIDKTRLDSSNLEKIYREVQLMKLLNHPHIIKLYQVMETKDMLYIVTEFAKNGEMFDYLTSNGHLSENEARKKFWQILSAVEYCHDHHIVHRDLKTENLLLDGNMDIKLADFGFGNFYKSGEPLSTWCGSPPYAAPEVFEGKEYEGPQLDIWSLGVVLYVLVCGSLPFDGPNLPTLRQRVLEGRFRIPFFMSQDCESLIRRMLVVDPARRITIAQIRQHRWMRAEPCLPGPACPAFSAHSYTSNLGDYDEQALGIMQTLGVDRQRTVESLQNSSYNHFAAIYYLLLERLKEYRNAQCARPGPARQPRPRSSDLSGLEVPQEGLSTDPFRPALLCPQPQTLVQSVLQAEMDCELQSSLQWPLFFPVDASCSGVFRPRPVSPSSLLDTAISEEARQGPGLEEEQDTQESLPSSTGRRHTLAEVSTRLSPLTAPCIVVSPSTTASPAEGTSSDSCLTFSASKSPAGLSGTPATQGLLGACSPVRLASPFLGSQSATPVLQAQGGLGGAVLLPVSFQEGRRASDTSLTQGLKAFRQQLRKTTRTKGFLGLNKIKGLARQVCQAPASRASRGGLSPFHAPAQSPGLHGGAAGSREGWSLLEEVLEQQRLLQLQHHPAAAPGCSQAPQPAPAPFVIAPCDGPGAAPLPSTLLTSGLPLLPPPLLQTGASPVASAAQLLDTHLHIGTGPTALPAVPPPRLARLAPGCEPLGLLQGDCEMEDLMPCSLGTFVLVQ
# MAP3K11 (human) = MAP3K11 (human) (UniProt Q16584)
# MAP3K11 (human), sequence (Q16584 whole entry, looked up): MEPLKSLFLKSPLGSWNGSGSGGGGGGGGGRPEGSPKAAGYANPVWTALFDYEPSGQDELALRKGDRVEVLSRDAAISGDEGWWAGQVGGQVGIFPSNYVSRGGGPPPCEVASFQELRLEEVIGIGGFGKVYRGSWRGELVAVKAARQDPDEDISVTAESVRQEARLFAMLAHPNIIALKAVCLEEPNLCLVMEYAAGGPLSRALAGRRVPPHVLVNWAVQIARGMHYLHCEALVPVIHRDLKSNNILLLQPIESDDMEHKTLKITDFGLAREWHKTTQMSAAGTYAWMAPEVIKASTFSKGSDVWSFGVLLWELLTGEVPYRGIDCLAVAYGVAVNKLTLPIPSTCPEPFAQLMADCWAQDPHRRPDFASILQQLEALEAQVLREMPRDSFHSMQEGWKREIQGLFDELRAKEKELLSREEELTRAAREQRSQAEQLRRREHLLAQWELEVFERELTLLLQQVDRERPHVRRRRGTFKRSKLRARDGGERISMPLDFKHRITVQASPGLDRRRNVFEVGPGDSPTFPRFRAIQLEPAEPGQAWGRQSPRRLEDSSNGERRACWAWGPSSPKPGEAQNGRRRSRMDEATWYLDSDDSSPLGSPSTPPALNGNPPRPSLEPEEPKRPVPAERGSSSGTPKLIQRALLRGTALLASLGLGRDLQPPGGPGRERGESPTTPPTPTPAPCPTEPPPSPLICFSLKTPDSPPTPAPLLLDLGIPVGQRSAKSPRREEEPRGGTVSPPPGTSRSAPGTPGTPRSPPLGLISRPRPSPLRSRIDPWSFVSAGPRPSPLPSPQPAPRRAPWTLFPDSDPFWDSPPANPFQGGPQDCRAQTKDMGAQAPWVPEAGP
# RPS6KA4 KD2 (human) = RPS6KA4 KD2 (human) (UniProt O75676)
# IKBKB (human) = IKBKB (human) (UniProt O14920)
# STK38L (human) = STK38L (human) (UniProt Q9Y2H1)
# STK38L (human), sequence (Q9Y2H1 whole entry, looked up): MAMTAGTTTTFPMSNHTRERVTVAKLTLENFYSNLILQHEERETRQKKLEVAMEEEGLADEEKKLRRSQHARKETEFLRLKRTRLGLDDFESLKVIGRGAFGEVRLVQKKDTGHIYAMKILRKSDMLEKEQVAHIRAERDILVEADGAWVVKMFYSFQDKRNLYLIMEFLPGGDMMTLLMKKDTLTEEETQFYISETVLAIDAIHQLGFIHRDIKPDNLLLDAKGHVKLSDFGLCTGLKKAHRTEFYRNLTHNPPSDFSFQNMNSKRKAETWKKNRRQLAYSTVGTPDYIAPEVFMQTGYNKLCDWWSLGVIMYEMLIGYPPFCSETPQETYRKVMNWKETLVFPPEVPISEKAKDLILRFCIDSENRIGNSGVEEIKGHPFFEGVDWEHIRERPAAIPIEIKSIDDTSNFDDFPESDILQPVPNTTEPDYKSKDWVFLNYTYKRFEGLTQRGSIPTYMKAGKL
# EPHB2 (human) = EPHB2 (human) (UniProt P29323)
# NEK5 (human) = NEK5 (human) (UniProt Q6P3R8)
# PDGFRB (human) = PDGFRB (human) (UniProt P09619)
# ALK (human) = ALK (human) (UniProt Q9UM73)
# [3] = tested on: ABL1 (human), P00519 [F317L]
# STK24 (human) = STK24 (human) (UniProt Q9Y6E0)
# PIK3CG (human) = PIK3CG (human) (UniProt P48736)
# RPS6KA5 KD1 (human) = RPS6KA5 KD1 (human) (UniProt O75582)
# IGF1R (human) = IGF1R (human) (UniProt P08069)
# IKBKE (human) = IKBKE (human) (UniProt Q14164)
# KIT (human) = KIT (human) (UniProt P10721)
# STK32B (human) = STK32B (human) (UniProt Q9NY57)
# STK32B (human), sequence (Q9NY57 whole entry, looked up): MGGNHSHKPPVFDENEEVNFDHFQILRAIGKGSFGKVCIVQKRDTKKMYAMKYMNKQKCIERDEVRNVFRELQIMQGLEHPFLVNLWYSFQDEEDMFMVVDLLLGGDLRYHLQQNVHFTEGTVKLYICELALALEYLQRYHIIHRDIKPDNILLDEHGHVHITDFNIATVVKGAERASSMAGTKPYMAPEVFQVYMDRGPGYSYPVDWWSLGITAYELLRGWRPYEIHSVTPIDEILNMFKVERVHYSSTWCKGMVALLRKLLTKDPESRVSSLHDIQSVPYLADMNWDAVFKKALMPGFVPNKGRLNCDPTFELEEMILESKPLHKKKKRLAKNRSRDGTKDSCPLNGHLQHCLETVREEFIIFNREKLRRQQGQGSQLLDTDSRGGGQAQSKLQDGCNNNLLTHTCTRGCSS
# PIP4K2B (human) = PIP4K2B (human) (UniProt P78356)
# DAPK2 (human) = DAPK2 (human) (UniProt Q9UIK4)
# PRKD2 (human) = PRKD2 (human) (UniProt Q9BZL6)
# ERBB4 (human) = ERBB4 (human) (UniProt Q15303)
# ERBB4 (human), sequence (Q15303 whole entry, looked up): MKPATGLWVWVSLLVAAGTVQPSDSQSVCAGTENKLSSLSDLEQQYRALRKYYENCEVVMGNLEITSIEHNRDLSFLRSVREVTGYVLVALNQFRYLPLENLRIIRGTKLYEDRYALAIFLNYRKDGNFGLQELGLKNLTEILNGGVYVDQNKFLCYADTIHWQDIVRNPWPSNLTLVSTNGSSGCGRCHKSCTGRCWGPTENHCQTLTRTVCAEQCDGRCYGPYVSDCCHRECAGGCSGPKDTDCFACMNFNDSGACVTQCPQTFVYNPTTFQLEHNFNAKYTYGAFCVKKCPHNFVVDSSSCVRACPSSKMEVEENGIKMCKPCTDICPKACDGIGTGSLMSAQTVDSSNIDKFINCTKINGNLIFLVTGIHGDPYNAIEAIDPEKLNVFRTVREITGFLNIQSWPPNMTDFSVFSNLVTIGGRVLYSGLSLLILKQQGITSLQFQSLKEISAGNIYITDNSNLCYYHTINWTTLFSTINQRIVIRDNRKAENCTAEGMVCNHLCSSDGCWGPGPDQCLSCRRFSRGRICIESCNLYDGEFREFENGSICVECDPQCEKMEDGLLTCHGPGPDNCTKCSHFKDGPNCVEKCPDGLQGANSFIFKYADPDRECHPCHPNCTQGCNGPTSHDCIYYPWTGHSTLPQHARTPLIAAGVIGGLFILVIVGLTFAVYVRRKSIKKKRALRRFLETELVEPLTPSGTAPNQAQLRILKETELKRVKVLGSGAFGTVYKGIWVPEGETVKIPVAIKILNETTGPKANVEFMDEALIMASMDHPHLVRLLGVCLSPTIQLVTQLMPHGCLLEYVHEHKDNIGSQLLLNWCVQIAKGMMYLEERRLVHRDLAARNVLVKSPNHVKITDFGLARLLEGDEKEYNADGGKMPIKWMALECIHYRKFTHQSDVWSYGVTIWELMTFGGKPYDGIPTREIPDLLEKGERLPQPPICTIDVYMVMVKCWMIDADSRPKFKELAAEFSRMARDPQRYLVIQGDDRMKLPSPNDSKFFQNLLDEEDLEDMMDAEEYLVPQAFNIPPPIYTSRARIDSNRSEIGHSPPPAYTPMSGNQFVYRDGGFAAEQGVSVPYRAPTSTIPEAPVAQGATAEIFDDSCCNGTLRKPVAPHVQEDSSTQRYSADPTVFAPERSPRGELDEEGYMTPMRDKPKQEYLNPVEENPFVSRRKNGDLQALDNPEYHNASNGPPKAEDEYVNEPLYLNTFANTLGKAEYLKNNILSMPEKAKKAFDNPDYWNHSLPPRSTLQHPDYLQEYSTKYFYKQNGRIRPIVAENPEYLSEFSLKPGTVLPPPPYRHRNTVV
# DYRK1A (human) = DYRK1A (human) (UniProt Q13627)
# MAK (human) = MAK (human) (UniProt P20794)
# MAP3K6 (human) = MAP3K6 (human) (UniProt O95382)
# MAP3K2 (human) = MAP3K2 (human) (UniProt Q9Y2U5)
# CDK4 CCND1 (human) = CDK4 CCND1 (human) (UniProt P11802+P24385)
# [4] = tested on: KIT (human), P10721 [A829P]
# TAOK1 (human), sequence (Q7L7X3 whole entry, looked up): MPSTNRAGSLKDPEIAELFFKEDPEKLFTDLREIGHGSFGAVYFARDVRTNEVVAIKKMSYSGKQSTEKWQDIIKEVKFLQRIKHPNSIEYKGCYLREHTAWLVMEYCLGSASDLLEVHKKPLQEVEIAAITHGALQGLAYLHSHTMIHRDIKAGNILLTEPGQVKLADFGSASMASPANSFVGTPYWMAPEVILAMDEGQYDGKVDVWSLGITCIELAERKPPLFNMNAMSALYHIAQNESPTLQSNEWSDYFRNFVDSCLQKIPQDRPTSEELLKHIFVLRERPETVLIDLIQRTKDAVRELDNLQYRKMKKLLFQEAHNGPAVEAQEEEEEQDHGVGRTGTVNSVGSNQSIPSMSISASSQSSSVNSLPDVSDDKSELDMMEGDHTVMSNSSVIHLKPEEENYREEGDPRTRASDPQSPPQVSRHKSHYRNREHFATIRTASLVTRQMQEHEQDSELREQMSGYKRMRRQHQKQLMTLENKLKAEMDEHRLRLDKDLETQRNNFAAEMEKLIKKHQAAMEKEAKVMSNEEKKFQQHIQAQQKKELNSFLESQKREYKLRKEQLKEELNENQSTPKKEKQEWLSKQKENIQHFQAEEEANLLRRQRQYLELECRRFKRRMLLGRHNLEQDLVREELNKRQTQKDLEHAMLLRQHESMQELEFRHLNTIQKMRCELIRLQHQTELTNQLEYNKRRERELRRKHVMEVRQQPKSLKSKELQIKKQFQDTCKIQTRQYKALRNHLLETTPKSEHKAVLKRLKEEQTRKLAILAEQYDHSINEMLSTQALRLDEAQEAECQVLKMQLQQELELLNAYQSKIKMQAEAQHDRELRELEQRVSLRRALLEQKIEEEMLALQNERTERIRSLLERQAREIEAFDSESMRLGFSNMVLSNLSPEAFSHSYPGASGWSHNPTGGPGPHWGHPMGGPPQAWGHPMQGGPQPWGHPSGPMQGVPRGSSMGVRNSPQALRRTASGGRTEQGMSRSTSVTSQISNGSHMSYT
SMILES,"kinase still bound, per cent of control (MYO3A (human)) [%]","kinase still bound, per cent of control (GSK3A (human)) [%]","kinase still bound, per cent of control (TAOK1 (human)) [%]","kinase still bound, per cent of control (SRMS (human)) [%]","kinase still bound, per cent of control (ACVR1B (human)) [%]","kinase still bound, per cent of control (CDK15 (human)) [%]","kinase still bound, per cent of control (SIK1 (human)) [%]","kinase still bound, per cent of control (MAP3K11 (human)) [%]","kinase still bound, per cent of control (RPS6KA4 KD2 (human)) [%]","kinase still bound, per cent of control (NEK5 (human)) [%]","kinase still bound, per cent of control (PDGFRB (human)) [%]","kinase still bound, per cent of control (ALK (human)) [%]","kinase still bound, per cent of control (STK24 (human)) [%]","kinase still bound, per cent of control (IGF1R (human)) [%]","kinase still bound, per cent of control (IKBKE (human)) [%]","kinase still bound, per cent of control (KIT (human)) [%]","kinase still bound, per cent of control (PIP4K2B (human)) [%]","kinase still bound, per cent of control (DAPK2 (human)) [%]","kinase still bound, per cent of control (PRKD2 (human)) [%]","kinase still bound, per cent of control (ERBB4 (human)) [%]",other results
COc1ccc(N(C(=O)Oc2cc(C(=O)Nc3cccc(C(F)(F)F)c3)ccc2C)c2ccnc(Nc3ccc(N4CCN(C)CC4)cc3)n2)c(OC)c1,100,100,–,0,100,–,0.1,100,100,100,0.45,10,100,100,100,0.8,100,100,100,9.8,"kinase still bound, per cent of control (STK38L (human)): 100%; kinase still bound, per cent of control (EPHB2 (human)): 0.9%; kinase still bound, per cent of control (RPS6KA5 KD1 (human)): 100%; kinase still bound, per cent of control (STK32B (human)): 100%"
CC(=O)c1c(C)c2cnc(Nc3ccc(N4CCNCC4)cn3)nc2n(C2CCCC2)c1=O,58,50,11,49,96,39,90,–,3.2,27,29,38,16,81,22,60,18,2.4,0.7,83,"kinase still bound, per cent of control (DYRK1A (human)): 0.9%; kinase still bound, per cent of control (CDK4 CCND1 (human)): 0%; kinase still bound, per cent of control (MAK (human)): 76%; kinase still bound, per cent of control (MAP3K6 (human)): 69%; kinase still bound, per cent of control (IKBKB (human)): 80%; kinase still bound, per cent of control (PIK3CG (human)): 6.8%; kinase still bound, per cent of control (MAP3K2 (human)): 49%; kinase still bound, per cent of control [4]: 32%"

# Second part, led by results:
"kinase still bound, per cent of control (MYO3A (human)) [%]","kinase still bound, per cent of control (GSK3A (human)) [%]","kinase still bound, per cent of control (TAOK1 (human)) [%]","kinase still bound, per cent of control (SRMS (human)) [%]","kinase still bound, per cent of control (ACVR1B (human)) [%]","kinase still bound, per cent of control (CDK15 (human)) [%]","kinase still bound, per cent of control (SIK1 (human)) [%]","kinase still bound, per cent of control (MAP3K11 (human)) [%]","kinase still bound, per cent of control (RPS6KA4 KD2 (human)) [%]","kinase still bound, per cent of control (NEK5 (human)) [%]","kinase still bound, per cent of control (PDGFRB (human)) [%]","kinase still bound, per cent of control (ALK (human)) [%]","kinase still bound, per cent of control (STK24 (human)) [%]","kinase still bound, per cent of control (IGF1R (human)) [%]","kinase still bound, per cent of control (IKBKE (human)) [%]","kinase still bound, per cent of control (KIT (human)) [%]","kinase still bound, per cent of control (PIP4K2B (human)) [%]","kinase still bound, per cent of control (DAPK2 (human)) [%]","kinase still bound, per cent of control (PRKD2 (human)) [%]","kinase still bound, per cent of control (ERBB4 (human)) [%]",SMILES,other results
15,100,100,7.3,100,100,100,100,100,100,100,4.5,100,0.65,100,100,100,100,100,0.55,COc1cc(N2CCC(C(N)=O)CC2)ccc1Nc1nc(N)c(Cl)c(Nc2ccccc2S(=O)(=O)C(C)C)n1,"kinase still bound, per cent of control [1]: 4.8%; kinase still bound, per cent of control [2]: 100%; kinase still bound, per cent of control (IKBKB (human)): 100%; kinase still bound, per cent of control (STK38L (human)): 100%; kinase still bound, per cent of control (EPHB2 (human)): 100%; kinase still bound, per cent of control [3]: 12%; kinase still bound, per cent of control (PIK3CG (human)): 100%; kinase still bound, per cent of control (RPS6KA5 KD1 (human)): 100%; kinase still bound, per cent of control (STK32B (human)): 3.7%"
100,100,100,26,100,100,100,100,100,100,0,100,100,100,100,0,100,100,100,100,Cc1cn(-c2cc(C(=O)Nc3ccc(C)c(NC(=O)c4ccno4)c3)cc(C(F)(F)F)c2)cn1,"kinase still bound, per cent of control (DYRK1A (human)): 100%; kinase still bound, per cent of control [1]: 0.95%; kinase still bound, per cent of control [2]: 100%; kinase still bound, per cent of control (MAK (human)): 100%; kinase still bound, per cent of control (MAP3K6 (human)): 100%; kinase still bound, per cent of control (IKBKB (human)): 100%; kinase still bound, per cent of control (STK38L (human)): 100%; kinase still bound, per cent of control (EPHB2 (human)): 9%; kinase still bound, per cent of control [3]: 1.4%; kinase still bound, per cent of control (PIK3CG (human)): 100%; kinase still bound, per cent of control (RPS6KA5 KD1 (human)): 100%; kinase still bound, per cent of control (STK32B (human)): 100%; kinase still bound, per cent of control (MAP3K2 (human)): 100%"
100,100,16,100,100,100,100,100,100,100,100,4.6,33,4.1,100,100,100,28,100,100,COc1cc(C)c(Sc2cnc(NC(=O)c3ccc(CNC(C)C(C)C)cc3)s2)cc1C(=O)N1CCN(C(C)=O)CC1 (stereo not given),"kinase still bound, per cent of control [1]: 100%; kinase still bound, per cent of control [2]: 100%; kinase still bound, per cent of control (IKBKB (human)): 100%; kinase still bound, per cent of control (STK38L (human)): 7%; kinase still bound, per cent of control (EPHB2 (human)): 100%; kinase still bound, per cent of control [3]: 100%; kinase still bound, per cent of control (PIK3CG (human)): 100%; kinase still bound, per cent of control (RPS6KA5 KD1 (human)): 100%; kinase still bound, per cent of control (STK32B (human)): 100%"
